# Data from ChEMBL document CHEMBL4483862, “Open-source discovery of chemical leads for next-generation chemoprotective antimalarials” (2018).
# System: Plasmodium berghei
# Assay: Luciferase/luciferin-expressing antifolate-resistant parasites were used to infect a culture of HepG2 cells that were pre-incubated with compounds. Infected hepatocytes emit light due to the luciferase reaction. Assay results are presented as the percent inhibition of light emission compared to control. […]
# Format: functional
# Settings: sporozoite; for IC90: read-out: LUCIFERASE INFECTION ASSAY - IC90
# [1] = read-out: LUCIFERASE INFECTION ASSAY - IC50
Structure (SMILES),IC50 [1] [µM],IC90 [µM],further results
Cc1cc(NC(=O)CSc2ncc(-c3ccc(Cl)cc3)n2-c2ccccc2C)no1,9.42,> 10,–
COc1cc(C(=O)Nc2cccc(-c3nc4ccccc4[nH]3)c2)cc(Cl)c1OC,–,8.28,"IC50 (HEPG2TOX_HILL_SLOPE 11, HEPG2TOX_R_SQUARED 0.706, PBLUC_HILL_SLOPE 2.74, PBLUC_R_SQUARED 0.344, read-out: LUCIFERASE INFECTION ASSAY - IC50): 3.71 µM"
c1csc(-c2cnc3sc(NCC4CCOCC4)nn23)c1,> 10.3,> 10.3,–
c1ccc2cc(-c3csc(Nc4cccc5ccccc45)n3)ccc2c1,> 9.36,> 9.36,–
COC(=O)c1cc(C(=O)OC)cc(-n2c(C)cc(C(O)(C(=O)OC)C(F)(F)F)c2C)c1 (stereo not given),> 10,> 10,–
NS(=O)(=O)c1ccc(-n2ncc(Nc3ccc(F)cc3)c(Cl)c2=O)cc1,–,> 10,"IC50 (HEPG2TOX_HILL_SLOPE 0.263, HEPG2TOX_R_SQUARED 0.596, PBLUC_HILL_SLOPE 7.27, PBLUC_R_SQUARED 0.0377, read-out: LUCIFERASE INFECTION ASSAY - IC50): > 10 µM"
Cc1ccc(-n2nnnc2-c2cnc3ccccc3c2-c2ccccc2)cc1,> 9.08,> 9.08,–
Cc1ccc(C2(C(F)(F)F)NC(=O)c3ccc(OC(C)C)cc3O2)cc1 (stereo not given),3.99,> 10,–
OCc1ccc(-c2ccc3ncc(-c4cccc(CO)c4)n3n2)cc1,–,2.83,"IC50 (HEPG2TOX_HILL_SLOPE 2.34, HEPG2TOX_R_SQUARED 0.973, PBLUC_HILL_SLOPE 2.94, PBLUC_R_SQUARED 0.59, read-out: LUCIFERASE INFECTION ASSAY - IC50): 1.34 µM"
Cc1ccn2cc(C(=O)Nc3nc(C(C)C)cs3)nc2c1,–,> 10,"IC50 (PBLUC_HILL_SLOPE 42, PBLUC_R_SQUARED 0.63, read-out: LUCIFERASE INFECTION ASSAY - IC50): 9.53 µM"
O=C(Nc1cccc2ccccc12)N1CCN(c2ncccc2C(F)(F)F)CC1,–,0.105,"IC50 (HEPG2TOX_HILL_SLOPE 3.44, HEPG2TOX_R_SQUARED 0.402, PBLUC_HILL_SLOPE 82.3, PBLUC_R_SQUARED 0.563, read-out: LUCIFERASE INFECTION ASSAY - IC50): 0.102 µM"
CCOC(=O)c1[nH]c2ccccc2c1-c1ccccc1,> 12.4,> 12.4,–
Nc1ncc(-c2cccc(OC(F)(F)F)c2)cc1-c1cccnc1,–,> 9.96,"IC50 (HEPG2TOX_HILL_SLOPE 1.26, HEPG2TOX_R_SQUARED 0.924, PBLUC_HILL_SLOPE 2.1, PBLUC_R_SQUARED 0.295, read-out: LUCIFERASE INFECTION ASSAY - IC50): 5.18 µM"
CCN(CC)CC(O)COc1cc(C(F)(F)F)ccn1 (stereo not given),> 11.3,> 11.3,–
OC(c1ccc(Cl)cc1)c1nnc(Nc2cc(C(F)(F)F)ccc2F)s1 (stereo not given),> 10,> 10,–
COc1ccc(C(=O)/C=C/c2cccc3cccnc23)cc1Br,–,> 10,"IC50 (PBLUC_HILL_SLOPE 24.4, PBLUC_R_SQUARED 0.237, read-out: LUCIFERASE INFECTION ASSAY - IC50): > 10 µM"
CN1CCN(c2ccc(-c3cn4c(-c5ccc(Oc6ccccc6)cc5)cnc4cn3)cn2)CC1,6.77,> 7.13,–
Cc1ccc(-c2noc(-c3csc([C@@H]4C[C@H](O)[C@@H](CO)O4)n3)n2)cc1,–,> 9.18,"IC50 (PBLUC_HILL_SLOPE 1.21, PBLUC_R_SQUARED 0.165, read-out: LUCIFERASE INFECTION ASSAY - IC50): 3.59 µM"
O=C(/C=C/c1cc([N+](=O)[O-])ccc1Cl)c1ccc(N2CCOCC2)c(F)c1,–,> 10,"IC50 (HEPG2TOX_HILL_SLOPE 3.72, HEPG2TOX_R_SQUARED 0.763, PBLUC_HILL_SLOPE 12.8, PBLUC_R_SQUARED 0.291, read-out: LUCIFERASE INFECTION ASSAY - IC50): 8.87 µM"
N#Cc1ccc(-c2cnc3cnc(-c4cccc(N)c4)cn23)cc1,2.59,4.97,–
O=C(c1cc(-c2ccccc2)nc2ccccc12)N1N=CCC1(O)C(F)(F)F (stereo not given),–,8.59,"IC50 (PBLUC_HILL_SLOPE 5.58, 3.40, PBLUC_R_SQUARED 0.0168, 0.865, read-out: LUCIFERASE INFECTION ASSAY - IC50): 4.5 µM"
Cc1nc(NCCCc2n[nH]c(N)c2C#N)c2c(-c3ccccc3)csc2n1,–,9.77,"IC50 (PBLUC_HILL_SLOPE 3.76, PBLUC_R_SQUARED 0.424, read-out: LUCIFERASE INFECTION ASSAY - IC50): 5.44 µM"
Cc1cccc(C2NC(=O)NC3=C2C(=O)N(CCc2ccccc2)C3)c1 (stereo not given),> 10,> 10,–

Structure (SMILES),IC50 [1] [µM],IC90 [µM],further results
c1ccc(-c2cc(NCCCn3ccnc3)nc3ccccc23)cc1,–,8.58,"IC50 (PBLUC_HILL_SLOPE 4.01, PBLUC_R_SQUARED 0.225, read-out: LUCIFERASE INFECTION ASSAY - IC50): 4.96 µM"
Cc1ccc2nc(NC(=O)c3cc(F)c(F)cc3F)c(C(=O)NC3CCCC3)n2c1,–,2.75,"IC50 (HEPG2TOX_HILL_SLOPE 1.15, HEPG2TOX_R_SQUARED 0.906, PBLUC_HILL_SLOPE 3.53, PBLUC_R_SQUARED 0.394, read-out: LUCIFERASE INFECTION ASSAY - IC50): 1.47 µM"
COc1ccc(N(Cc2cn(-c3ccccc3)nc2-c2ccc(Cl)cc2)S(=O)(=O)c2ccccc2)cc1,–,> 10,"IC50 (FFLUC_HILL_SLOPE 12.1, FFLUC_R_SQUARED 0.616, PBLUC_HILL_SLOPE 4, PBLUC_R_SQUARED 0.331, read-out: LUCIFERASE INFECTION ASSAY - IC50): 7.59 µM"
O=C(Nc1nc(=O)n(C(=O)c2cccs2)s1)c1ccccc1,> 9.96,> 9.96,–
O=C(OCC(=O)N1N=C(c2ccc(Cl)cc2)CC1c1ccco1)c1[nH]nc2ccccc12 (stereo not given),> 10,> 10,–
O=C1c2ccccc2C(=Cc2ccc(C(F)(F)F)cc2)c2ccccc21,3.58,4.1,–
Cc1ccc(NC(=O)c2cc3c(s2)CCCCCC3)nc1,–,5.93,"IC50 (PBLUC_HILL_SLOPE 0.925, PBLUC_R_SQUARED 0.636, read-out: LUCIFERASE INFECTION ASSAY - IC50): 0.551 µM"
Oc1ccc(-c2cnc3cnc(-c4ccccc4Cl)cn23)cc1,–,4.1,"IC50 (HEPG2TOX_HILL_SLOPE 4.19, HEPG2TOX_R_SQUARED 0.981, PBLUC_HILL_SLOPE 3.43, PBLUC_R_SQUARED 0.853, read-out: LUCIFERASE INFECTION ASSAY - IC50): 2.16 µM"
Cc1onc(-c2ccccc2)c1C(=O)NCC1COCCO1 (stereo not given),> 10,> 10,–
O=C(CCCC(=O)Nc1cc(C(F)(F)F)cc(C(F)(F)F)c1)Nc1cc(C(F)(F)F)cc(C(F)(F)F)c1,1.07,> 5.95,–
COc1ccc(CNc2nc3cnc(Nc4cccc(Cl)c4)cc3n2C)cc1OC,–,3.92,"IC50 (HEPG2TOX_HILL_SLOPE 1.65, HEPG2TOX_R_SQUARED 0.962, PBLUC_HILL_SLOPE 14.9, PBLUC_R_SQUARED 0.209, read-out: LUCIFERASE INFECTION ASSAY - IC50): 3.38 µM"
COC(=O)c1cnc(NC(=O)/C=C/c2ccc([N+](=O)[O-])o2)s1,–,> 10,"IC50 (HEPG2TOX_HILL_SLOPE 3.5, HEPG2TOX_R_SQUARED 0.48, read-out: LUCIFERASE INFECTION ASSAY - IC50): > 10 µM"
c1ccc(CNc2nc3cnc(-c4ccc5ccccc5c4)cc3[nH]2)cc1,–,> 10,"IC50 (HEPG2TOX_HILL_SLOPE 2.88, HEPG2TOX_R_SQUARED 0.737, PBLUC_HILL_SLOPE 2.3, PBLUC_R_SQUARED 0.668, read-out: LUCIFERASE INFECTION ASSAY - IC50): 4.89 µM"
Cc1nc(C(C)(C)C)nc2sc(C(=O)NNC(=O)c3ccccn3)c(C)c12,8.36,> 10,–
Cc1cc(NCc2cccnc2)n2nc(C(F)(F)F)c(-c3ccccc3)c2n1,7.83,> 8.61,–
CCN(c1ccccc1)S(=O)(=O)c1cc(NC(=O)NC23CC4(C)CC(C)(CC(C)(C4)C2)C3)ccc1Cl,–,6.3,"IC50 (HEPG2TOX_HILL_SLOPE 3.39, HEPG2TOX_R_SQUARED 0.973, PBLUC_HILL_SLOPE 5.7, PBLUC_R_SQUARED 0.283, read-out: LUCIFERASE INFECTION ASSAY - IC50): 4.28 µM"
Cc1cc(C(=O)CNC(=O)Nc2ccccc2)c(C)n1-c1ccc(F)c(Cl)c1,–,9.57,"IC50 (HEPG2TOX_HILL_SLOPE 8.63, HEPG2TOX_R_SQUARED 0.403, PBLUC_HILL_SLOPE 1.87, PBLUC_R_SQUARED 0.488, read-out: LUCIFERASE INFECTION ASSAY - IC50): 2.96 µM"
CC(Sc1nc(-c2ccccc2)c(-c2ccccc2)o1)C(=O)N1CCNC1=O (stereo not given),> 10,> 10,–
O=C(Nc1ccc(F)cc1F)c1cc(Br)ccc1O,–,9.77,"IC50 (HEPG2TOX_HILL_SLOPE 11.9, HEPG2TOX_R_SQUARED 0.641, PBLUC_HILL_SLOPE 14.3, PBLUC_R_SQUARED 0.252, read-out: LUCIFERASE INFECTION ASSAY - IC50): 8.37 µM"
Cc1nnc(SCc2cc(=O)n3nc(C)c(-c4ccc(F)cc4)c3[nH]2)s1,–,> 8.52,"IC50 (PBLUC_HILL_SLOPE 8.42, PBLUC_R_SQUARED 0.168, read-out: LUCIFERASE INFECTION ASSAY - IC50): 7.52 µM"
O=C(NC1CCN(Cc2ccccc2)C1)c1cc2cc(Br)ccc2[nH]1 (stereo not given),–,> 10,"IC50 (FFLUC_HILL_SLOPE 15.5, FFLUC_R_SQUARED 0.545, HEPG2TOX_HILL_SLOPE 1.06, HEPG2TOX_R_SQUARED 0.919, PBLUC_HILL_SLOPE 3.35, PBLUC_R_SQUARED 0.069, read-out: LUCIFERASE INFECTION ASSAY - IC50): 7.09 µM"
COc1cc(-c2cnc3cnc(-c4ccc(N)nc4)cn23)ccc1O,–,4.1,"IC50 (HEPG2TOX_HILL_SLOPE 2.67, HEPG2TOX_R_SQUARED 0.695, PBLUC_HILL_SLOPE 3.91, PBLUC_R_SQUARED 0.793, read-out: LUCIFERASE INFECTION ASSAY - IC50): 2.33 µM"
